Laboratory results from patent US20200399392A1, “INHIBITORS OF PLA2-G1B COFACTORS FOR TREATING CANCER” (priority 2018, published 2020).

Experiments:
pSTAT5 NT in CD4 T cells = assay: PLA2-GIB bioassay on CD4 T cells: pSTAT5 nuclear translocation in response to IL-7, confocal microscopy; format: cell-based, human
From the text: Purification of Human CD4 T-lymphocytes—Venous blood was obtained from healthy volunteers through the EFS (Etablissement Français du Sang, Centre Necker-Cabanel, Paris). CD4 T-cells were purified from whole blood using RosetteSep Human CD4+ T cell Enrichment Cocktail (Stem Cell, 15062). This cocktail contains mouse and rat monoclonal antibodies purified from mouse ascites fluid or hybridoma culture supernatant, by affinity chromatography using protein A or Protein G sepharose. These antibodies are bound in bispecific tetrameric antibody complexes which are directed against cell surface antigens on human hematopoietic cells (CD8, CD16, CD19, CD36, CD56 CD66b, TCRγ/δ) and glycophorin A on red blood cells. The rosetteSep antibody cocktail crosslinks unwanted cells in human whole blood to multiple red blood cells, forming immunorosettes. This increases the density of unwanted cells, such that they pellet along with the free red blood cells when centrifuged over a buoyant density medium such as lymphocytes separation medium (Eurobio, CMSMSL01-01).
Whole blood was incubated with RosetteSep Human CD4+ T cell Enrichment Cocktail at 50 μl/ml for 20 minutes at room temperature under gentle shaking (100 rpm), diluted with an equal volume of PBS+2% foetal bovine serum (FBS) and mixed gently. The diluted samples were centrifuged 20 minutes at 1200×g on top of lymphocytes separation medium. The enriched cells were then collected from the density medium at plasma interface and washed twice with PBS+2% FBS. Cells were subsequently resuspended in RPMI 1640 medium (Lonza) supplemented with 5% FBS, 50 mM HEPES pH 7.4, glutamine, penicillin, streptomycin and fungizone (complete medium), counted with a Moxi Z mini automated cell counter (ORFLO, MXZ000). Cells suspension was adjusted at 7×10^6 cells/ml and equilibrated at least 2 h at 37° C. in a 5% CO2 humidified atmosphere.
The enriched CD4-T cell population was controlled by flow cytometry on a cytoflex (Beckman coulter). The quiescence of recovered CD4 T-cells was controlled by the low level of IL-2Rα (CD25).

PLA2-GIB = PLA2-GIB enzymatic assay on [3H] arachidonic acid labelled Jurkat E6.1 T cells; format: cell-based, human
Procedure: Jurkat E6.1 T cells (ECACC 88042803) or gC1qR KO Jurkat E6.1 T cells were incubated for 17 h at 5×10^5 cells/ml with 1 μCi/ml of arachidonic acid [5,6,8,9,11,14,15-^3H(N)] (Perkin Elmer, NET298Z250UC) in RPMI 1640 medium (Lonza) supplemented with 10% FBS, 50 mM HEPES pH 7.4, glutamine, penicillin, streptomycin and fungizone at 2 ml/well in 6-well plates at 37° C. in a 5% CO2 humidified atmosphere. Cells were washed twice with RPMI with 10% FBS by centrifugation at 300×g for 10 minutes at room temperature and then frozen in 90% FBS 10% DMSO at 10^7 cells/ml/vial at −80° C. Percent of [3H] arachidonic acid in CD4 T cells is the (1 minus ratio of [3H] arachidonic acid in the supernatant of CD4 T cells without cells (cpm/ml) on total [3H] arachidonic acid in supernatant and cells (cpm/ml).
To test PLA2-GIB activity on [3H] arachidonic acid labelled Jurkat E6.1 T lymphocytes, cells were unfrozen in 10% FBS RPMI preheated at 37° C. by centrifugation at 300×g for 10 minutes at room temperature, washed twice in 2.5% FBS RPMI, and equilibrated at 5×10^4 or 10^5 Jurkat E6.1 T cells/400 μl/well in 24-well polystyrene plates for 1 h30 at 37° C. in a 5% CO2 humidified atmosphere. Then HCV core solution or vehicle dilution in 2.5% FBS RPMI at 5.95 μM was mixed with an equal volume of a PLA2GIB solution at 630 nM or 2 μM 2.5% FBS RPMI and 100 μl were added per well at the same time for 2 h. For peptide treatments, cells were pretreated for 2 h, 4 h or 21 h, as indicated on figures, with 50 μl per well of peptide solutions at 110 μM or 55 μM in 2.5% FBS RPMI. Then 50 μl per well of PLA2-GIB at 630 nM or 2 μM 2.5% FBS RPMI or medium alone were added for 2 h. Cells and supernatant were collected in eppendorf tubes and centrifuged at 580×g for 10 minutes at room temperature. The [3H] arachidonic acid released in cell supernatant was quantified in 300 μl with 16 ml of Ultima gold (Perkin Elmer, 6013329) in low diffusion vials (Perkin Elmer, 6000477) on a counter (tri-Carb 2800 TR liquid scintillation analyzer, Perkin Elmer).

NH2-PWNASWSNKSLDDIW—COOH (H-PWNASWSNKSLDDIW-OH) [PEP3]
inhibition of pSTAT5 NT (pSTAT5 NT in CD4 T cells; 0.025 μg/ml of PEP3 with 5 nM of PLA2-GIB, FIG. 5B): 18%
inhibition of pSTAT5 NT (pSTAT5 NT in CD4 T cells; 0.5 μg/ml of PEP3 alone, n=3 donors, FIG. 5C): 5%
effect on pSTAT5 NT (pSTAT5 NT in CD4 T cells; peptide alone, without PLA2-GIB, FIG. 5B): no effect
PLA2-GIB activity vs scrambled PEP3 (PLA2-GIB; Jurkat E6.1 WT cells, pretreatment 21 h, FIG. 13): increased significantly
PLA2-GIB activity on the membrane of Jurkat E6.1 T cells vs scrambled PEP3 (PLA2-GIB; pretreatment 4 h or more with peptide 11 μM, 200 nM PLA2-GIB, FIG. 11): significantly increased
